Broadly, the IC50 is the concentration that inhibits the measured activity by half.

The results in this text go back to ChEMBL document CHEMBL1139192, “Novel bis(indolyl)maleimide pyridinophanes that are potent, selective inhibitors of glycogen synthase kinase-3” (Bioorg Med Chem Lett, 2007).

The species entered for assay [1] is Homo sapiens. The assay can be described thus: Residual activity of human CDK2/Cyclin A at 1 uM relative to control.
The target of assay [2] is RAC-beta serine/threonine-protein kinase (Homo sapiens) (UniProt P31751). Description: Residual activity of human PKBbeta at 1 uM relative to control.
RAC-beta serine/threonine-protein kinase (Homo sapiens), sequence (P31751 whole entry): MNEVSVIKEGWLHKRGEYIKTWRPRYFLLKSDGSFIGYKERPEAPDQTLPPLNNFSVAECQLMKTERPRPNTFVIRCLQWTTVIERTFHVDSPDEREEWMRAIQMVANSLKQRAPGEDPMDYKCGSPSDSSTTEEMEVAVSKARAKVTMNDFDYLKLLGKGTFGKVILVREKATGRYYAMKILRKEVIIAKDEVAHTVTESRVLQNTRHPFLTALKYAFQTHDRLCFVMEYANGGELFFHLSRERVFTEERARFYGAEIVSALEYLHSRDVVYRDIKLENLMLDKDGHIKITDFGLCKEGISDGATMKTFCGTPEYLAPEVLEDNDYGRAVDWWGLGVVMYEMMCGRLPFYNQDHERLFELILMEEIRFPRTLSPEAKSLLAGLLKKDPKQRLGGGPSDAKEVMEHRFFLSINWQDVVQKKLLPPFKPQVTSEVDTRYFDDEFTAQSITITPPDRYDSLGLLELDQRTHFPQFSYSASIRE
The target of assay [3] is Protein kinase C alpha type (Homo sapiens) (UniProt P17252). Description: Residual activity of human PKCalpha at 1 uM relative to control.
Assay [4] concerns the target T1, Serine/threonine-protein kinase Nek2 (Homo sapiens) (UniProt P51955).
T1 sequence (whole entry): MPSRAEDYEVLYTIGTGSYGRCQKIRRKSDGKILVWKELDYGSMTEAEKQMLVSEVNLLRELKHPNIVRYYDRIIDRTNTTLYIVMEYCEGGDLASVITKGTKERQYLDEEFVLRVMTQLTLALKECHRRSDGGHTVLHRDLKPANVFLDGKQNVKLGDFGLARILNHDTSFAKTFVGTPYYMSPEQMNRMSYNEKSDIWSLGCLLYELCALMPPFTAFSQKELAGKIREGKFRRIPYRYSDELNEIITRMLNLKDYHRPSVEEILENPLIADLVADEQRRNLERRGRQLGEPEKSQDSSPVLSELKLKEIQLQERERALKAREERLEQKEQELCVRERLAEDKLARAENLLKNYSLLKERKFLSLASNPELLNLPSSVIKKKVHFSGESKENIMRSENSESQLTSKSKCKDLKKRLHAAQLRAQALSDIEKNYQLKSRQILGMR
Description: Inhibition of human NEK2 at 1 uM relative to control; values are per cent of control.

Assay [5] has as its target Fibroblast growth factor receptor 3 (Homo sapiens) (UniProt P22607). The assay can be described thus: Residual activity of human FGFR3 at 1 uM relative to control.
In assay [6] the target is Mitogen-activated protein kinase 9 (Homo sapiens) (UniProt P45984). The assay can be described thus: Inhibition of human JNK2-alpha-2 at 1 uM relative to control; values are per cent of control.
Mitogen-activated protein kinase 9 (Homo sapiens), sequence (P45984 whole entry, looked up): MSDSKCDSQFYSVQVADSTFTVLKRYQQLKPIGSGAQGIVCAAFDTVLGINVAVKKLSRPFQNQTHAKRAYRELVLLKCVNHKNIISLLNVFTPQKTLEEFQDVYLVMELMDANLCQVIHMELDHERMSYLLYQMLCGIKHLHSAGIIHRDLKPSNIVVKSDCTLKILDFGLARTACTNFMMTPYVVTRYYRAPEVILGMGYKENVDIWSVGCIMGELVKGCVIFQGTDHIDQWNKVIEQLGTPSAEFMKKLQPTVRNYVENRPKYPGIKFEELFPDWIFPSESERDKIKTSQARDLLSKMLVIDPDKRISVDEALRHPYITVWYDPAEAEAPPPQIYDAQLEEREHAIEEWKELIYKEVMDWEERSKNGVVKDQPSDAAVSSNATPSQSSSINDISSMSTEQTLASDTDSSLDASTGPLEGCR
In assay [7] the target is T2, MAP kinase-activated protein kinase 5 (Homo sapiens) (UniProt Q8IW41).
T2 sequence (whole entry): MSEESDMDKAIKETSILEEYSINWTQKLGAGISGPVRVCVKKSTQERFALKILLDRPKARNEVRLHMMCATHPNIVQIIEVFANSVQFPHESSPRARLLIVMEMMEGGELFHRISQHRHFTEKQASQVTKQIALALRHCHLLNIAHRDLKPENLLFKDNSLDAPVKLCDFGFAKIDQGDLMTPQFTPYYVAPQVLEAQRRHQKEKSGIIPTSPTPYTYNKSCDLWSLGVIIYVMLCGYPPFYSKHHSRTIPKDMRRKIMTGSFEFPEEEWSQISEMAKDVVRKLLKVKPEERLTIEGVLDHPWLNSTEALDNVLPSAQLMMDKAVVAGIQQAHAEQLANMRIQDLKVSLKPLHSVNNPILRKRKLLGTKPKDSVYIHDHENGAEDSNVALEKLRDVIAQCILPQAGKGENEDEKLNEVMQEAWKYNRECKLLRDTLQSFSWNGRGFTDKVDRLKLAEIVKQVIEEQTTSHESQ
Description: Inhibition of human PRAK at 1 uM relative to control; values are per cent of control.

In assay [8] the target is Protein kinase C gamma type (Homo sapiens) (UniProt P05129). Description: Residual activity of human PKCgamma at 1 uM relative to control.
In assay [9] the target is T3, Ephrin type-B receptor 4 (Homo sapiens) (UniProt P54760).
T3 sequence (whole entry): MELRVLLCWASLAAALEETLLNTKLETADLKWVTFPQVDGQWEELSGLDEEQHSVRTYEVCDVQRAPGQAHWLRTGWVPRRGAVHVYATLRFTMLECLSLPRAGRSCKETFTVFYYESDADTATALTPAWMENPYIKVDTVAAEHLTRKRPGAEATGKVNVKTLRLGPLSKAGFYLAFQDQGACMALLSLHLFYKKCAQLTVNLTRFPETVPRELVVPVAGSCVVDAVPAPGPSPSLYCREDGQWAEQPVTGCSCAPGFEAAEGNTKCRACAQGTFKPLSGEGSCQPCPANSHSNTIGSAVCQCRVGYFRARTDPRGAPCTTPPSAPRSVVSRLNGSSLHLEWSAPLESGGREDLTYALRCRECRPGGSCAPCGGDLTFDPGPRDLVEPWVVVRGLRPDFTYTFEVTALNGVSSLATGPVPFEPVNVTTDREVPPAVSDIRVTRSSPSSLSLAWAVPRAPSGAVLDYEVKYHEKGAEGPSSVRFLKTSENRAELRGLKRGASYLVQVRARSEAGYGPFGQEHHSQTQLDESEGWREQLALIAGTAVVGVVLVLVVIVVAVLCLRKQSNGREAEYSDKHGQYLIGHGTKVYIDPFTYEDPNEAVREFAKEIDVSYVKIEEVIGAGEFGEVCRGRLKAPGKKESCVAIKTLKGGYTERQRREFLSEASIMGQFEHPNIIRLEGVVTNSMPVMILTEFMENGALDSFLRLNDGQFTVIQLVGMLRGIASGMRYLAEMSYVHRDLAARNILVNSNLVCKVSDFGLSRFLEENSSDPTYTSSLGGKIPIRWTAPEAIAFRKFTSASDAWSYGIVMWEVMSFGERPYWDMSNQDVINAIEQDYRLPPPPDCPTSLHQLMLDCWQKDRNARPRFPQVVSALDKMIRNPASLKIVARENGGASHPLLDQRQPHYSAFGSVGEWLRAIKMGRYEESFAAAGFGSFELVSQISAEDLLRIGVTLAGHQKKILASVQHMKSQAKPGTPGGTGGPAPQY
The assay can be described thus: Residual activity of human EphB4 at 1 uM relative to control.

For assay [10], the target named is Tyrosine-protein kinase receptor UFO (Homo sapiens) (UniProt P30530). The assay can be described thus: Residual activity of human Axl at 1 uM relative to control.
The target in assay [11] is Tyrosine-protein kinase Fes/Fps (Homo sapiens) (UniProt P07332). The assay can be described thus: Inhibition of human Fes at 1 uM relative to control; values are per cent of control.
Tyrosine-protein kinase Fes/Fps (Homo sapiens), sequence (P07332 whole entry): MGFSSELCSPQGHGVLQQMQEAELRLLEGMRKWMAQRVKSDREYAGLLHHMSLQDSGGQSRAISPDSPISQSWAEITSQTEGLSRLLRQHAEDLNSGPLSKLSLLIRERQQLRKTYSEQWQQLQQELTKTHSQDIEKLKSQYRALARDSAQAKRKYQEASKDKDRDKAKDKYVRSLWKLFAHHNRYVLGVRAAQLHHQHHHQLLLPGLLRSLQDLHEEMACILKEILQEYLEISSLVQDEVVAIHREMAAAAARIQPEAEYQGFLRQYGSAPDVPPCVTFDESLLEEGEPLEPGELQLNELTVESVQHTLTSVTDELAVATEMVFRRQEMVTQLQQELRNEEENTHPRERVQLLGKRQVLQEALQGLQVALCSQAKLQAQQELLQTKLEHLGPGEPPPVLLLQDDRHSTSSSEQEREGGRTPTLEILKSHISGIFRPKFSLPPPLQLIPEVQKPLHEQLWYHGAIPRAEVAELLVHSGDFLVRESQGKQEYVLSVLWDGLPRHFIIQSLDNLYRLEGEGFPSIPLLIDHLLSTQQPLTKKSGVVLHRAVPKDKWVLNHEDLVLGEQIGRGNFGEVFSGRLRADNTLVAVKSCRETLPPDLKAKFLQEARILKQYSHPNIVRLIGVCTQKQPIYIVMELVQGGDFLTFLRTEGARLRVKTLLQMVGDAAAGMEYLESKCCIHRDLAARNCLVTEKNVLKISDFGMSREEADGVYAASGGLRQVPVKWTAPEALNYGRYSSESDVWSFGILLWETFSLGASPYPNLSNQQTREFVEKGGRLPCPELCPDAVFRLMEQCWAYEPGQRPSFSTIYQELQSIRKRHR
Assay [12] addresses Protein kinase C beta type (Homo sapiens, UniProt P05771). The assay can be described thus: Inhibition of human recombinant PKCbeta2.
Assay [13] concerns the target Glycogen synthase kinase-3 beta (Homo sapiens, UniProt P49841). The assay can be described thus: Residual activity of human GSK3-beta at 1 uM relative to control.
Assay [14] is filed under the species Homo sapiens. Description: Residual activity of human CDK1/Cyclin B at 1 uM relative to control.
Assay [15] is described as follows: Inhibition of MEK1 at 1 uM relative to control; values are per cent of control. The note with it: Homo sapiens.

Fibroblast growth factor receptor 3 (Homo sapiens), sequence (P22607 23-806 limits assumed): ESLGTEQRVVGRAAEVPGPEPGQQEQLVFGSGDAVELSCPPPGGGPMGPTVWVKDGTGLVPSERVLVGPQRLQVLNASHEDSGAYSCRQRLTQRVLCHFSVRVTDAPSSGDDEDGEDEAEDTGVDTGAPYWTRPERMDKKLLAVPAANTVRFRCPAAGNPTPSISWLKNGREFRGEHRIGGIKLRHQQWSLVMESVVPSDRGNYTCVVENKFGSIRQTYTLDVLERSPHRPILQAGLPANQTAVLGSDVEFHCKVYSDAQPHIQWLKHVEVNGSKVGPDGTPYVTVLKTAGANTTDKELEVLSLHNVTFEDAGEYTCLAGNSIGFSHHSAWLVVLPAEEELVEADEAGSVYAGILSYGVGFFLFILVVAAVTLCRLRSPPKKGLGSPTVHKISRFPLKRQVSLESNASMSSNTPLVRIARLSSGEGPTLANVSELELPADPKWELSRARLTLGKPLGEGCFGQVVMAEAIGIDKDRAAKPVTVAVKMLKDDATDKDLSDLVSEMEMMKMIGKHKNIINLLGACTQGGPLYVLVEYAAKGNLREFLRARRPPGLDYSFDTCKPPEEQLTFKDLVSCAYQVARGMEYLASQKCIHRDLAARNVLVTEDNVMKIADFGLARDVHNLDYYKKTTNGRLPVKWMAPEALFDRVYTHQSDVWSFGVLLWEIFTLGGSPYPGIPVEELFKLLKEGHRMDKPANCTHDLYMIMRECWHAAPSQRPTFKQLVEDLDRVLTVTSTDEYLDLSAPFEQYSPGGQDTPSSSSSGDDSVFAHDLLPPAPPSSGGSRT
Protein kinase C beta type, sequence (P05771 whole entry): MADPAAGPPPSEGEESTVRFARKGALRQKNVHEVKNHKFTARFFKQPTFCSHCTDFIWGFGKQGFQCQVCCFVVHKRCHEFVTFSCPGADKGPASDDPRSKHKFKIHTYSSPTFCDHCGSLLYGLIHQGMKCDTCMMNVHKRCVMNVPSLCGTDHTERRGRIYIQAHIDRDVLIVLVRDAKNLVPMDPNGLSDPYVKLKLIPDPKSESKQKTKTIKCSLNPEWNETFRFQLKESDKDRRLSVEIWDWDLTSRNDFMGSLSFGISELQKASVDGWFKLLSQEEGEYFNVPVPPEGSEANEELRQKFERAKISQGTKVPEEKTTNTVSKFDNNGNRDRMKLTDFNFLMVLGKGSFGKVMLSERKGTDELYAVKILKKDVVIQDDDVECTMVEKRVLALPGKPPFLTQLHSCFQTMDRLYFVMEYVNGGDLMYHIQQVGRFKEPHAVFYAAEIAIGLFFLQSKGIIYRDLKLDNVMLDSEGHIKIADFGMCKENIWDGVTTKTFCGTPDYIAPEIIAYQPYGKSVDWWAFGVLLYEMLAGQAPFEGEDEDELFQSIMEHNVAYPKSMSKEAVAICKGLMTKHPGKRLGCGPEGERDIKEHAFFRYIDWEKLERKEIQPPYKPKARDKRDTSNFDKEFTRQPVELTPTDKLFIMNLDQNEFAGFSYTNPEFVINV
Glycogen synthase kinase-3 beta, sequence (P49841 whole entry, looked up): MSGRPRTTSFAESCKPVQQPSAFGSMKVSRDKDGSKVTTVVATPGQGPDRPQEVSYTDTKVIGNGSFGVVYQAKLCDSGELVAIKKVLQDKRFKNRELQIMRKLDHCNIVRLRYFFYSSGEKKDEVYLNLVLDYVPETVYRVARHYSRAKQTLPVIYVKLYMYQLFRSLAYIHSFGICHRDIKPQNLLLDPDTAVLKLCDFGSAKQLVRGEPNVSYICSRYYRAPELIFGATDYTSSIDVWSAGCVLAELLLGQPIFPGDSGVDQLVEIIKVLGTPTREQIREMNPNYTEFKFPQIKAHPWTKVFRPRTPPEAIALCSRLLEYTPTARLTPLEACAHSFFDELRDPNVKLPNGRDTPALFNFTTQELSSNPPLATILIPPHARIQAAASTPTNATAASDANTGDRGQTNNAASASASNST

Take `O=C1NC(=O)C2=C1c1cn(c3ccccc13)CCCc1ccc(c(N3CCCC3)n1)CCCn1cc2c2ccccc21`: the residual activity in the assay filed under Homo sapiens [1] came out at 88%; in assay [2] it was 102%; in assay [3], 83%; in assay [4], 99%; in assay [5] it was 117%; in [6] it was 110%. For the same compound, the residual activity worked out at 102% in assay [7]; 102% in assay [8]; 100% in [9]; 100% in assay [10]; 130% in assay [11]; 7% in assay [13]. The IC50 in assay [12] stood at 2.2 µM.

`O=C1NC(=O)C2=C1c1cn(c3ccccc13)CCCc1cc(nc(N3CCCC3)c1)CCCn1cc2c2ccccc21`: the residual activity in the assay listed under Homo sapiens [1] was 88%; in [2] it was 104%; in [3], 82%; in the assay filed under Homo sapiens [14], 80%; in assay [4], 105%; in assay [5], 114%. Moreover, the residual activity in [6] is 114%; in [7], 101%; in assay [8], 99%; in assay [9] it was 109%; in [10], 106%; in assay [15] it was 91%. Also, the residual activity in assay [11] was found to be 139%; in assay [13], 3%. For the same compound, the IC50 in assay [12] worked out at 1.2 µM.

In the case of `CN(C)c1nc2ccc1CCCn1cc(c3ccccc31)C1=C(C(=O)NC1=O)c1cn(c3ccccc13)CC2`, the residual activity in the assay filed under Homo sapiens [1] was 120%; in assay [2], 86%; in [3] it was 68%; in the assay listed under Homo sapiens [14], 78%; in [4], 104%; in [5], 75%. Also, the residual activity in assay [6] was determined as 96%; in [7] it was 88%; in assay [8] it was 91%; in assay [9], 89%; in assay [10], 97%; in [15], 76%. Further, the figures for the residual activity in assay [11] and in [13] were 107% and 1%, respectively. The IC50 in assay [12] amounted to 1.4 µM.

Regarding `CN(C)c1cc2cc(n1)CCCn1cc(c3ccccc31)C1=C(C(=O)NC1=O)c1cn(c3ccccc13)CCC2`, the residual activity in the assay filed under Homo sapiens [1] is 80%; in assay [2] it was 118%; in assay [3], 74%; in the assay listed under Homo sapiens [14] it was 98%; in assay [4], 102%; in [5], 84%. Besides, the residual activity was found to be 106% in assay [6]; 96% in assay [7]; 107% in assay [8]; 103% in assay [9]; 104% in assay [10]; 93% in assay [15]. Besides, the results for the residual activity in assay [11] and in assay [13] were 133% and 1%, respectively. Besides, the IC50 in assay [12] is 2.4 µM.
